# Assays:
# [1] = Clinical biochemistry (liver function tests, glucose, urea, creatinine, electrolytes) in cross-over study; assay type: in vivo, human patients; conditions: Thromboserin vs placebo
# Protocol: (§1) Study design: Randomised controlled double blind cross-over study: 2 weeks 5HT2A receptor antagonist (Thromboserin) (10 mg twice daily) or placebo, wash out period of 2 weeks and cross over to other arm for further two weeks. Side effects, and compliance documented in both groups. Blood sampling/Assays: Blood samples obtained at baseline, 2 weeks (the end of phase 1), 4 weeks (the end of phase 2), at 6 weeks (the end of phase 3) and 2 weeks after the completion of the study. The following assays were obtained. • Full blood count, urea, electrolytes, creatinine, liver function tests and glucose • Blood levels of Thromboserin • Bleeding time • Surface expression of the platelet activation markers P-selectin and fibrinogen. These were measured using whole blood flow cytometry. Measurement after incubation with agonists such as ADP was also performed in order to assess the platelet responsiveness to stimuli. • Ultegra Rapid Platelet Function Assay (RPFA). Methods: Venepuncture: Clinical symptoms and signs were also recorded. The other observations were: routine full blood count by Clinical Haematology Laboratory, ARI, and U&Es, creatinine, Liver Function tests and blood glucose by Clinical Biochemistry Laboratory, ARI.
# platelets = experiment: Platelet count (full blood count) in cross-over study; assay type: in vivo, human patients
# Protocol: as §1, with “Venepuncture: Venous blood was collected into vacutainers by clean venepuncture with 19G butterfly and adaptor, using tourniquet to locate the vein only. The first 5 mL of blood was used for full blood count, and subsequent samples collected in order for the platelet tests and others.” for “Venepuncture:”
# [2] = Skin bleeding time in randomised double blind cross-over study; assay type: in vivo, human patients; conditions: first 13 patients, drug 10 mg twice daily vs placebo cross-over courses
# Description: Objective: To evaluate whether inhibition platelets can be accompanied by no increase in bleeding time, by means of serotonin 5HT2A receptor antagonism. Study population: Patients with a history of intermittent claudication (IC) or coronary heart disease (CHD) recruited. There were 48 patients studied, all of whom were Caucasian, aged 69±6.6 years and of which 38 were male and 10 female. Patients with IC have clinical findings of peripheral vascular disease and an ABPI <0.9. Patients with CHD have chronic stable angina and angiographic evidence of coronary artery disease (stenosis of >70% in at least one major coronary artery). Study design: Randomised controlled double blind cross-over study: 2 weeks 5HT2A receptor antagonist (Thromboserin) (10 mg twice daily) or placebo, wash out period of 2 weeks and cross over to other arm for further two weeks. Side effects, and compliance documented in both groups. Skin bleeding time was performed, contra-laterally from venepuncture. A suitable area of forearm was shaved if necessary and cleaned with alcohol swab. A sphygmomanometer cuff was inflated on the upper arm to 40 mmHg. One incision was made with Surgicutt bleeding device ([…], Hertfordshire), and a stopwatch was started. […] The bleeding time was recorded to the nearest 30 seconds.
# alpha-1 adrenergic = conditions: cited from earlier work
# [3] = in the presence of hypokalaemia; cited from earlier work
Probability of no Difference: Alanine amino transferase ([1]; Wilcoxon),Probability of no Difference: Gamma GT ([1]; Wilcoxon),"Probability of no Difference: Gamma GT, In patients with abnormal values ([1]; Wilcoxon)",Probability of no Difference: Alkaline phosphatase ([1]; paired t test),"Probability of no Difference: Platelet count (platelets; Thromboserin 10 mg twice daily 2 weeks vs placebo, Wilcoxon)","Probability of no Difference: Platelet count over 6 weeks (platelets; Thromboserin vs placebo, Repeated measures ANOVA)","Probability of no Difference: Platelets, excluding 4 patients With abnormal count (platelets; Thromboserin vs placebo, Wilcoxon)",Change of bleeding time (in words) [2],SMILES,Alpha-1 adrenergic activity (in words) (alpha-1 adrenergic),Pro-arrhythmic properties (in words) [3]
0.0021,0.0216,0.0266,0.0034,0.0416,0.0233,0.0214,no significant rise in bleeding time,CN(C)C(C)(C)CSc1nc2ccccc2cc1-c1ccccc1.Cl [Thromboserin],,
,,,,,,,,O=C(c1ccc(F)cc1)C1CCN(CCn2c(=O)[nH]c3ccccc3c2=O)CC1 [Ketanserin],alpha-1 adrenergic antagonistic properties,pro-arrhythmic properties
